Laboratory results taken from patent US9376408B2, “Therapeutic thiazolidinone compounds” (Merck Sharp & Dohme Corp., priority 2012, dated 2016).
Like-named read-outs stand apart in the source and are kept apart here.

Key:
[1] = target: T1, endogenous CETP from serum (Homo sapiens, UniProt P11597); test: RTA assay in 95% human serum (CETP-catalyzed CE and TG transfer, endogenous CETP from serum); assay type: biochemical
T1 construct: yielding a concentration of approximately 15 nM endogenous CETP in the assay; from tissue; host or cells: human serum
T1 sequence (P11597 18-493): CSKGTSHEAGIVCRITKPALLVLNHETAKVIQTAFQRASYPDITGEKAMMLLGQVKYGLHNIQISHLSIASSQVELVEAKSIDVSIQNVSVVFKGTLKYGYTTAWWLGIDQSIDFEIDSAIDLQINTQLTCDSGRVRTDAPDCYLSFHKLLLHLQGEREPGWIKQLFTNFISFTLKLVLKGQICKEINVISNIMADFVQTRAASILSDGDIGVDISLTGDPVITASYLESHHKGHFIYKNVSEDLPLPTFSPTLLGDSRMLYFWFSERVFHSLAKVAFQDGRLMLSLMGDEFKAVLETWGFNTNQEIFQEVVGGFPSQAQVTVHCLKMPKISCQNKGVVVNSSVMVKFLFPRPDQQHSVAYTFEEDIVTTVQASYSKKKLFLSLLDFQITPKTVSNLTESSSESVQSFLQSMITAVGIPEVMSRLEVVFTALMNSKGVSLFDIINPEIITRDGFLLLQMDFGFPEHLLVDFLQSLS
Description: In Vitro Radioactive Assays of CETP-Catalyzed CE and TG Transfer (RTA Assay)
Reagents and sources are: [3H] cholesteryl oleate (GE #TRK.886), [3H] Triolein (Perkin-Elmer NET-431), Butylated hydroxyl toluene (Aldrich, #D4740-4), DOPC (Sigma, # P6354), Sodium Bromide (Fisher scientific #S255-500), PEG 8000 (Fisher, #BP233-1), and human HDL (Intracel Corp #RP-036).
An in vitro assay for determining IC50's to identify compounds that inhibit CETP transfer activity is performed based on a modification of a published method (Morton and Zilversmit, (1981) A plasma inhibitor of triglyceride and cholesteryl ester transfer activities, J. Biol. Chem. 256(23), 11992-11995). The ability of inhibitors to alter CETP activity is performed using two different assays: one using recombinant CETP and one using an endogenous plasma source of CETP. Both assays measure the transfer of [3H] cholesteryl oleate or [3H] triolein from exogenous LDL to HDL.
Radiolabeled donor particles are generated by first combining 100 μl of 200 μM butylated hydroxyl toluene in CHCl3, 216 μL of 21.57 mM DOPC in EtOH, and either 500 μCi [3H]-triolein (Perkin Elmer #NET-431) or 500 μCi [3H]-cholesteryl oleate (GE #TRK886) in a glass tube. Reagents are mixed, dried under nitrogen, and then resuspended in 2 mL of 50 mM Tris, 27 μM EDTA at pH 7.4. After a brief vortex, the solution is sonicated until clear and mixed with 20 mL of fresh human serum. The mixture is incubated overnight at 37° C. The [3H] labeled LDL substrate is separated at 1.063 g/ml density by sequential ultracentrifugal flotation in NaBr according to the method of Havel, Eder, et al., 1955, and Chapman, Goldstein, et al., 1981. Once isolated the particles are dialyzed 3× in CETP buffer (50 mM Tris, pH 7.4, 100 mM NaCl, 1 mM EDTA). Human HDL is purchased from Intracel and used as the acceptor particles.
Transfer assays are performed in a 96-well v-bottom polypropylene plate. For the RTA using recombinant CETP (2% RTA), an assay cocktail is prepared with the final concentrations 128 μg/mL HDL, 20 nM rCETP, 2% human serum, and 1×CETP buffer. 1 μL of each test compound diluted in DMSO is added to 47 μL of assay cocktail per well and incubated at 37° C. for 1 hour. To initiate the transfer reaction, 2 μL radiolabeled LDL is added. After an additional 60 min of incubation at 37° C., the transfer action is terminated by precipitation of LDL with an equal volume of 20% W/V PEG 8000. The plates are centrifuged at 2000 rpm for 30 minutes at 4° C. A 40 μL aliquot of the HDL-containing supernatant is transferred to a Packard Optiplate™ with 200 μL of MicroScint™ 20. After mixing, plates are counted by liquid scintillation. Counts present in the supernatant for blanks (wells containing only HDL acceptor, CETP buffer and DMSO) are subtracted from those containing test compounds and used to correct for non-specific transfer.
For the transfer assay using endogenous CETP from serum (95% RTA), the same procedure is used except that human serum is added such that a final concentration of serum of 95% of the total assay volume is achieved, yielding a concentration of approximately 15 nM endogenous CETP in the assay. This is then combined with HDL and CETP buffer and the reaction proceeds as above and is terminated as described.
Comparison of the counts of samples with inhibitors to an uninhibited (DMSO only) positive control yield a percent inhibition. A plot of percent inhibition vs. log of inhibitor concentration, fit to a Sigmoidal 4 parameter equation is used to calculate IC50.
Starting materials are commercially available or are made using known procedures or as shown below. The examples may be synthesized using the general schemes provided below. Synthetic intermediates for making the compounds are made as described below. The data reported for the examples below were generally obtained using the RTA assay in 95% human serum. […]

[2] = patients on anacetrapib plus baseline statin compared with patients treated with just a statin; cited from earlier work

Row | SMILES | IC50 ([1]; read-out: IC50) | other results
1 | COc1ccc(-c2ccc(C(=O)O)cc2C)cc1-c1ccc(C(F)(F)F)nc1CN1C(=O)S[C@H](c2cc(C(F)(F)F)cc(C(F)(F)F)c2)[C@@H]1C [Example 2, 3′-[2-({(4S,5R)-5-[3,5-bis(trifluoromethyl)phenyl]-4-methyl-2-oxo-1,3-thiazolidin-3-yl}methyl)-6-(trifluoromethyl)pyridin-3-yl]-4′-methoxy-2-methylbiphenyl-4-carboxylic acid] | 39 nM | 
2 | COc1ncc(-c2c(C)cc(C(=O)O)cc2C)cc1-c1ccc(C(F)(F)F)nc1CN1C(=O)S[C@H](c2cc(C(F)(F)F)cc(C(F)(F)F)c2)[C@@H]1C [Example 5, 4-[2′-({(4S,5R)-5-[3,5-bis(trifluoromethyl)phenyl]-4-methyl-2-oxo-1,3-thiazolidin-3-yl}methyl)-2-methoxy-6′-(trifluoromethyl)-3,3′-bipyridin-5-yl]-3,5-dimethylbenzoic acid] | 25 nM | 
3 | COc1ccc([C@H]2CC[C@H](C(=O)O)CC2)cc1-c1ccc(C(F)(F)F)nc1CN1C(=O)S[C@H](c2cc(C(F)(F)F)cc(C(F)(F)F)c2)[C@@H]1C [Example 6, trans-4-{3-[2-({(4S,5R)-5-[3,5-bis(trifluoromethyl)phenyl]-4-methyl-2-oxo-1,3-thiazolidin-3-yl}methyl)-6-(trifluoromethyl)pyridin-3-yl]-4-methoxyphenyl} cyclohexanecarboxylic acid] | 257 nM | 
4 | COc1ncc(-c2ccc(C(=O)O)cc2C)cc1-c1ccc(C(F)(F)F)nc1CN1C(=O)S[C@H](c2cc(C(F)(F)F)cc(C(F)(F)F)c2)[C@@H]1C [Example 3, 4-[2′-({(4S,5R)-5-[3,5-bis(trifluoromethyl)phenyl]-4-methyl-2-oxo 1,3-thiazolidin-3-yl}methyl)-2-methoxy-6′-(trifluoromethyl)-3,3′-bipyridin-5-yl]-3-methylbenzoic acid] | 106 nM | 
5 | COc1ccc(-c2ccc(C(=O)O)cc2C)cc1-c1ccc(C(F)(F)F)cc1CN1C(=O)S[C@H](c2cc(C(F)(F)F)cc(C(F)(F)F)c2)[C@@H]1C [Example 1, 2″-(((4S,5R)-5-(3,5-bis(trifluoromethyl)phenyl)-4-methyl-2-oxothiazolidin-3-yl)methyl)-4′-methoxy-2-methyl-4″-(trifluoromethyl)-[1,1′:3′,1″-terphenyl]-4-carboxylic acid] |  | IC50 ([1]; read-out: RTA (95% HS)): 62 nM
6 | COc1cc(F)c(C(C)C)cc1-c1ccc(C(F)(F)F)cc1CN1C(=O)O[C@H](c2cc(C(F)(F)F)cc(C(F)(F)F)c2)[C@@H]1C [anacetrapib] |  | decrease of LDL-C [2]: 40%; increase of HDL-C [2]: 138%
7 | COc1ncc(-c2ccc(C(=O)O)cc2C)cc1-c1ccc(C(F)(F)F)cc1CN1C(=O)S[C@H](c2cc(C(F)(F)F)cc(C(F)(F)F)c2)[C@@H]1C [Example 7, 4-{5-[2-({(4S,5R)-5-[3,5-bis(trifluoromethyl)phenyl]-4-methyl-2-oxo-1,3-thiazolidin-3-yl}methyl)-4-(trifluoromethyl)phenyl]-6-methoxypyridin-3-yl}-3-methylbenzoic acid] | 117 nM | 
8 | COc1ccc(CCC(=O)O)cc1-c1ccc(C(F)(F)F)nc1CN1C(=O)S[C@H](c2cc(C(F)(F)F)cc(C(F)(F)F)c2)[C@@H]1C [Example 4, 3-{3-[2-({(4S,5R)-5-[3,5-bis(trifluoromethyl)phenyl]-4-methyl-2-oxo-1,3-thiazolidin-3-yl}methyl)-6-(trifluoromethyl)pyridin-3-yl]-4-methoxyphenyl} propanoic acid] | 300 nM | 
